Experimental data published in patent US20210000852A1, “POLYDATIN PACLITAXEL COMPOSITION, AND APPLICATION IN PREPARING MEDICAMENT FOR PREVENTING AND TREATING GASTRIC CANCER” (Tianjin Medical University Cancer Institute and Hospital, priority 2018, published 2021).

Assays:
[1] = system: human gastric cancer cells AGS; assay: CCK-8 growth and proliferation activity, AGS cells; type: cell-based; details: for inhibition of the activity of gastric cancer cells (single agent): 24 h, concentration gradients; for IC50 / IC50 of AGS cells: treated for 24 h
From the text: (§1) Human gastric cancer cell line SGC-7901 was purchased from Shanghai Genechem Co., Ltd. and human gastric cancer cell line AGS was purchased from Cell Bank of American Type Culture Collection (ATCC) (ATCC No. CRL-1739).
(§2) In FIG. 5, the mass ration of composition is as follows: (a) mPD: mPaclitaxel=22.65:1 (Example 3); (b) mPD: mPaclitaxel=45.29:1; (c) mPD: mPaclitaxel=90.59:1; (d) mPD: mPaclitaxel=226.48:1. In FIG. 6, the mass ration of composition is as follows: (a) mPD: mPaclitaxel=8.44:1; (b) mPD: mPaclitaxel=16.88:1; (c) mPD: mPaclitaxel=33.77:1 (Example 4).
(§3) In FIG. 7, the mass ration of composition is as follows: (a) mPD: mPactitaxel=45.29:1; (b) mPD: mPaclitaxel=90.59:1; (c) mPD: mPaclitaxel=226.48:1. In FIG. 8, the mass ration of composition is as follows: (a) mPD: mPaclitaxel=16.88:1; (b) mPD: mPaclitaxel=33.77:1.

[2] = system: human gastric cancer cells SGC-7901; assay: CCK-8 growth and proliferation activity, SGC-7901 cells; type: cell-based; details: for inhibition of the activity of gastric cancer cells (single agent): SGC-7901, 24 h, concentration gradients; for IC50 / IC50 of SGC-7901 cells: SGC-7901, treated for 24 h
From the text: as §1, §2, §3

Row | Compound | inhibition of the activity of gastric cancer cells (single agent) [1] | IC50 [1] | IC50 of AGS cells [1] | inhibition of the activity of gastric cancer cells (single agent) [2] | IC50 [2] | IC50 of SGC-7901 cells [2]
1 | CC(=O)O[C@H]1C(=O)[C@@]2(C)[C@H]([C@H](OC(=O)c3ccccc3)[C@]3(O)C[C@H](OC(=O)[C@H](O)[C@@H](NC(=O)c4ccccc4)c4ccccc4)C(C)=C1C3(C)C)[C@]1(OC(C)=O)CO[C@@H]1C[C@@H]2O [Paclitaxel] | inhibit the activity of both gastric cancer cells in a concentration-dependent manner | 3.34 µM | 6.3 µg/mL | inhibit the activity of both gastric cancer cells in a concentration-dependent manner | 5.27 µM | 5.5 µg/mL
2 | Polydatin | inhibit the activity of both gastric cancer cells in a concentration-dependent manner | 56.2 µM | 53.5 µg/mL | inhibit the activity of both gastric cancer cells in a concentration-dependent manner | 139 µM | 124.0 µg/mL
